Calls of active or inactive are those of the source. The calls are words filed in the database; no cut-off is given here.
Columns and labels:
[1] = tested on: Mus musculus; assay: Reno-protective activity against LPS-induced acute kidney injury C57BL/6J mouse model assessed as decrease in serum […] level at 10 mg/kg, ip administered twice at 30 mins prior to LPS challenge and 8 hrs post-LPS challenge and measured at 16 hrs post-LPS challenge; type: functional, organism-based; settings: time 16.5 hrs
[2] = Intrinsic clearance in human liver microsomes; type: ADME, Microsome; settings: read-out: CLH
[3] = Oral bioavailability in BALB/c mouse at 10 mg/kg measured for 24 hrs by LC-MS/MS analysis; type: ADME, organism-based; settings: in vivo
[4] = tested on: HEK293; assay: Cytotoxicity against human HEK293 cells transfected with mouse P2X7 receptor assessed as effect on cell viability at 1 to 4 uM incubated for 2 hrs by CCK8 assay; type: toxicity, cell-based; settings: hek293, 2 h, dose 1-4 µM
[5] = Half life in mouse liver microsomes; type: ADME, Microsome
[6] = Cmax in BALB/c mouse at 10 mg/kg, ip measured for 24 hrs by LC-MS/MS analysis; type: ADME, organism-based; parameters: dose 10 mg/kg, time 24 hrs, route ip; settings: in vivo
[7] = Intrinsic clearance in mouse liver microsomes; type: ADME, Microsome; settings: read-out: CLH
[8] = Cmax in BALB/c mouse at 10 mg/kg, iv measured for 24 hrs by LC-MS/MS analysis; type: ADME, organism-based; parameters: time 24 hrs, dose 10 mg/kg, route iv; settings: in vivo
[9] = tested on: THP-1; assay: Cytotoxicity against human THP-1 cells assessed as effect on cell viability at 1 to 4 uM incubated for 2 hrs by CCK8 assay; type: toxicity, cell-based; settings: thp-1, 2 h, dose 1-4 µM
[10] = tested on: HEK293; assay: Cytotoxicity against human HEK293 cells transfected with human P2X7 receptor assessed as effect on cell viability at 1 to 4 uM incubated for 2 hrs by CCK8 assay; type: toxicity, cell-based; settings: hek293, 2 h, dose 1-4 µM
[11] = molecular target: T1, P2X purinoceptor 7 (Homo sapiens) (UniProt Q99572); assay: Antagonist activity at human P2X7 receptor expressed in HEK293 cells assessed as inhibition of ATP-induced receptor pore formation at 200 nM by propidium iodide dye uptake based fluorescence analysis; type: cell-based
T1 sequence (whole entry): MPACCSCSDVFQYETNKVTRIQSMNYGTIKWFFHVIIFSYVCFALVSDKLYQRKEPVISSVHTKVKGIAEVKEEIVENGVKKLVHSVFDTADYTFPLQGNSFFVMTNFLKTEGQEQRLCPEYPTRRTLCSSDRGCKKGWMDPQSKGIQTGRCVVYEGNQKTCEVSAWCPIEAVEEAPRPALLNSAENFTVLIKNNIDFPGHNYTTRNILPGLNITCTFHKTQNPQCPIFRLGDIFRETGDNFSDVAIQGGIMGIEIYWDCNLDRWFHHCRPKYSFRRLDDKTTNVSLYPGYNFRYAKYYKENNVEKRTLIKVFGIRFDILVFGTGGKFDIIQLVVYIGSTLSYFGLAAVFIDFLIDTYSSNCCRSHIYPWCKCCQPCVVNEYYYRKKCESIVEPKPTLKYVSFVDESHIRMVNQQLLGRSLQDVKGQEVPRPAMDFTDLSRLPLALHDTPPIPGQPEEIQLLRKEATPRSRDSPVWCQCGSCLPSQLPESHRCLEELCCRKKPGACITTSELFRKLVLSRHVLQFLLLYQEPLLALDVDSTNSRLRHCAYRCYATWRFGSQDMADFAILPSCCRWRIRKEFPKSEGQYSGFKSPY

[12] = Clearance in BALB/c mouse at 10 mg/kg, ip measured for 24 hrs by LC-MS/MS analysis; type: ADME, organism-based; settings: in vivo
[13] = Tmax in BALB/c mouse at 10 mg/kg, iv measured for 24 hrs by LC-MS/MS analysis; type: ADME, organism-based; settings: in vivo
[14] = Clearance in BALB/c mouse at 10 mg/kg, iv measured for 24 hrs by LC-MS/MS analysis; type: ADME, organism-based; settings: in vivo
[15] = Tmax in BALB/c mouse at 10 mg/kg, ip measured for 24 hrs by LC-MS/MS analysis; type: ADME, organism-based; settings: in vivo
[16] = molecular target: T2, P2X purinoceptor 7 (Homo sapiens, UniProt Q99572); assay: Antagonist activity at human P2X7 receptor expressed in HEK293 cells assessed as inhibition of ATP-induced receptor pore formation by propidium iodide dye uptake based fluorescence analysis; type: cell-based
T2 sequence (Q99572 whole entry): T1 sequence (whole entry)

[17] = molecular target: T3, P2X purinoceptor 7 (Mus musculus) (UniProt Q9Z1M0); assay: Antagonist activity at mouse P2X7 receptor expressed in HEK293 cells assessed as inhibition of ATP-induced receptor pore formation at 1 uM by propidium iodide dye uptake based fluorescence analysis; type: cell-based; settings: filed as antagonist
T3 sequence (whole entry): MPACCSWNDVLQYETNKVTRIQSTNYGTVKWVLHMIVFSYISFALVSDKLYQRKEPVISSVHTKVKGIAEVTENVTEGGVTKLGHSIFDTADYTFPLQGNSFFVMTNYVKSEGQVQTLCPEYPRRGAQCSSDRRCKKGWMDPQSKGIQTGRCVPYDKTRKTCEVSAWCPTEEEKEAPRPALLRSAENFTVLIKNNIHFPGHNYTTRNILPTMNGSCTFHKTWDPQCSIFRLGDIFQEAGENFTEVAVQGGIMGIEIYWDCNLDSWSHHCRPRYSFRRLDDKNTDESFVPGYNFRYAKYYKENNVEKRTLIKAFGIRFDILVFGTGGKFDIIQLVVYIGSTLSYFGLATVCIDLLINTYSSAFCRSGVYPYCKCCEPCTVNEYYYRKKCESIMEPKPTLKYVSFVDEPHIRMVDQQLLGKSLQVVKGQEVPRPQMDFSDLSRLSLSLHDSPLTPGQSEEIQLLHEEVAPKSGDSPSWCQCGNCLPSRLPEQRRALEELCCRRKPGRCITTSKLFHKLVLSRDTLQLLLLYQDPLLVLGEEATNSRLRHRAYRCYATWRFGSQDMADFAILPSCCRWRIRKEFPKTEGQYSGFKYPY

[18] = molecular target: T4, P2X purinoceptor 7 (Mus musculus, UniProt Q9Z1M0); assay: Antagonist activity at mouse P2X7 receptor expressed in HEK293 cells assessed as inhibition of ATP-induced receptor pore formation by propidium iodide dye uptake based fluorescence analysis; type: cell-based
T4 sequence (Q9Z1M0 whole entry): T3 sequence (whole entry)

[19] = Half life in BALB/c mouse at 10 mg/kg, po measured for 24 hrs by LC-MS/MS analysis; type: ADME, organism-based; settings: in vivo
[20] = Cmax in BALB/c mouse at 10 mg/kg, po measured for 24 hrs by LC-MS/MS analysis; type: ADME, organism-based; parameters: time 24 hrs, dose 10 mg/kg, route po; settings: in vivo
[21] = Half life in BALB/c mouse at 10 mg/kg, ip measured for 24 hrs by LC-MS/MS analysis; type: ADME, organism-based; settings: in vivo
[22] = molecular target: T3, P2X purinoceptor 7 (Mus musculus); assay: Antagonist activity at mouse P2X7 receptor expressed in HEK293 cells assessed as inhibition of ATP-induced receptor pore formation at 200 nM by propidium iodide dye uptake based fluorescence analysis; type: cell-based
[23] = Half life in BALB/c mouse at 10 mg/kg, iv measured for 24 hrs by LC-MS/MS analysis; type: ADME, organism-based; settings: in vivo
[24] = Clearance in BALB/c mouse at 10 mg/kg, po measured for 24 hrs by LC-MS/MS analysis; type: ADME, organism-based; settings: in vivo
[25] = molecular target: T2, P2X purinoceptor 7; assay: Antagonist activity at P2X7 receptor in human THP-1 cells assessed as inhibition of ATP-induced IL-1beta secretion pretreated with LPS for 3 hrs followed by incubation with compound for 40 mins followed by treatment with ATP for 1 hr by ELISA; type: cell-based
[26] = AUC(0 to t) in BALB/c mouse at 10 mg/kg, po measured for 24 hrs by LC-MS/MS analysis; type: ADME, organism-based; parameters: time 24 hrs, dose 10 mg/kg, route po; settings: in vivo
[27] = Half life in human liver microsomes; type: ADME, Microsome
[28] = Tmax in BALB/c mouse at 10 mg/kg, po measured for 24 hrs by LC-MS/MS analysis; type: ADME, organism-based; settings: in vivo
[29] = tested on: Mus musculus; assay: Reno-protective activity against LPS-induced acute kidney injury C57BL/6J mouse model assessed as decrease in BUN level at 10 mg/kg, ip administered twice at 30 mins prior to LPS challenge and 8 hrs post-LPS challenge and measured at 16 hrs post-LPS challenge; type: functional, organism-based; settings: time 16.5 hrs
[30] = AUC(0 to t) in BALB/c mouse at 10 mg/kg, iv measured for 24 hrs by LC-MS/MS analysis; type: ADME, organism-based; parameters: time 24 hrs, dose 10 mg/kg, route iv; settings: in vivo
[31] = molecular target: T1, P2X purinoceptor 7 (Homo sapiens); assay: Antagonist activity at human P2X7 receptor expressed in HEK293 cells assessed as inhibition of ATP-induced receptor pore formation at 1 uM by propidium iodide dye uptake based fluorescence analysis; type: cell-based; settings: filed as antagonist
[32] = AUC(0 to t) in BALB/c mouse at 10 mg/kg, ip measured for 24 hrs by LC-MS/MS analysis; type: ADME, organism-based; parameters: dose 10 mg/kg, time 24 hrs, route ip; settings: in vivo
[33] = molecular target: T2, P2X purinoceptor 7; assay: Antagonist activity at human P2X7 receptor
[34] = molecular target: T4, P2X purinoceptor 7; assay: Antagonist activity at mouse P2X7 receptor

In the case of `CS(=O)(=O)c1ccc(-c2nc(C(=O)NCc3cn(-c4cc(Cl)ccn4)nn3)cs2)cc1`, the Activity [1] is reported as “Active”, the CLint scaled [2] is reported as less than 12 mL/min/kg and the bioavailability [3] is reported as 86.4%. For the same molecule, the Activity [4] was “Non-Toxic”, the half-life [5] was greater than 120 min and the Cmax [6] was 3650 ng/mL. For the same molecule, the CLint scaled [7] was less than 12 mL/min/kg, the Cmax [8] was 3040 ng/mL and the Activity [9] was “Non-Toxic”. For the same molecule, the Activity [10] was “Non-Toxic”, the inhibition ([11]; filed as antagonist) was 42.1% and the CL/F [12] was 16.9 mL/min/kg. It also gave a Tmax [13] of 4.8 min, a clearance [14] of 33.2 mL/min/kg and a Tmax [15] of 0.38 h. The IC50 [16] was 147 nM, the inhibition [17] was 99.5% and the IC50 [18] was 36.2 nM. It also gave a half-life [19] of 137 min, a Cmax [20] of 776 ng/mL and a half-life [21] of 236 min. The inhibition ([22]; filed as antagonist) was 105%, the half-life [23] was 118 min and the CL/F [24] was 40.8 mL/min/kg. It also gave an IC50 [25] of 358 nM, an AUC(0-t) at 24 h [26] of 4390 ng·h/mL and a half-life [27] greater than 120 min. For the same molecule, the Tmax [28] was 2 h, the Activity [29] was “Active” and the AUC(0-t) at 24 h [30] was 5080 ng·h/mL. The inhibition [31] was 68% and the AUC(0-t) at 24 h [32] was 9930 ng·h/mL.

With `O=C1C=C(n2cc(CCCl)nn2)C(=O)c2c(O)cccc21` the IC50 [33] was 1100 nM and the IC50 [34] was 1500 nM.

For `CS(=O)(=O)c1ccc(-c2ncc(C(=O)NCc3cn(-c4cc(Br)ccn4)nn3)s2)cc1`, the Activity [1] was “Active”, the CLint scaled [2] was less than 12 mL/min/kg and the bioavailability [3] was 17.5%. The Activity [4] was “Non-Toxic”, the half-life [5] was greater than 120 min and the Cmax [6] was 3660 ng/mL. The CLint scaled [7] was less than 12 mL/min/kg, the Cmax [8] was 3410 ng/mL and the Activity [9] was “Non-Toxic”. For the same molecule, the Activity [10] was “Non-Toxic”, the inhibition ([11]; filed as antagonist) was 56.9% and the CL/F [12] was 6.83 mL/min/kg. It also gave a Tmax [13] of 83.4 min, a clearance [14] of 3.67 mL/min/kg and a Tmax [15] of 4 h. For the same molecule, the IC50 [16] was 166 nM, the inhibition [17] was 114% and the IC50 [18] was 12.2 nM. The half-life [19] was 160 min, the Cmax [20] was 1010 ng/mL and the half-life [21] was 490 min. For the same molecule, the inhibition ([22]; filed as antagonist) was 114%, the half-life [23] was 472 min and the CL/F [24] was 26.3 mL/min/kg. It also gave an IC50 [25] of 289 nM, an AUC(0-t) at 24 h [26] of 7140 ng·h/mL and a half-life [27] greater than 120 min. The Tmax [28] was 2 h, the Activity [29] was “Active” and the AUC(0-t) at 24 h [30] was 40900 ng·h/mL. The inhibition [31] was 100% and the AUC(0-t) at 24 h [32] was 24400 ng·h/mL.

Molecule `CS(=O)(=O)Nc1ccc(-c2ncc(C(=O)NCc3cn(-c4cc(Cl)ccn4)nn3)s2)cc1` has a CLint scaled [2] of less than 12 mL/min/kg, a half-life [5] greater than 120 min and a CLint scaled [7] of less than 12 mL/min/kg. For the same molecule, the inhibition [11] was 26.6%, the IC50 [16] was 340 nM and the inhibition [17] was 89.8%. It also gave an IC50 [18] of 93.3 nM, an inhibition ([22]; filed as antagonist) of 71.6% and a half-life [27] greater than 120 min. The inhibition [31] was 52.3%.

Molecule `CS(=O)(=O)Nc1cccc(-c2ccc(Cl)c(C(=O)NCc3cn(-c4cc(Cl)ccn4)nn3)c2)c1` has a CLint scaled [2] of 30.6 mL/min/kg, a half-life [5] of 83.5 min and a CLint scaled [7] of 65.4 mL/min/kg. It also gave an inhibition [11] of 30.8%, an IC50 [16] of 91.4 nM and an inhibition [17] of 74.7%. For the same molecule, the IC50 [18] was 1860 nM, the inhibition [22] was 32.8% and the half-life [27] was 56.8 min. It also gave an inhibition [31] of 76.9%.
